For assay [1], the target named is Serine/threonine-protein kinase 32B (Homo sapiens) (UniProt Q9NY57). Kind of assay: Selectivity interaction (Ambit KINOMEscan and KiNATiv profiling in Jurkat cells) EUB0000090b STK32B. Type of assay: cell-based. Conditions: at 1 µM.
Assay [2] addresses MAP kinase-interacting serine/threonine-protein kinase 2 (Homo sapiens, UniProt Q9HBH9). Kind of assay: Selectivity interaction (KinomeScan (DiscoverX)) EUB0000607a MKNK2. Conditions: at 10 µM.
Assay [3] has as its target Casein kinase I isoform gamma-2 (Homo sapiens) (UniProt P78368). Conditions: at 10 µM.
For assay [4], the target named is T1, Muscle, skeletal receptor tyrosine-protein kinase (Homo sapiens) (UniProt O15146).
T1 sequence (whole entry): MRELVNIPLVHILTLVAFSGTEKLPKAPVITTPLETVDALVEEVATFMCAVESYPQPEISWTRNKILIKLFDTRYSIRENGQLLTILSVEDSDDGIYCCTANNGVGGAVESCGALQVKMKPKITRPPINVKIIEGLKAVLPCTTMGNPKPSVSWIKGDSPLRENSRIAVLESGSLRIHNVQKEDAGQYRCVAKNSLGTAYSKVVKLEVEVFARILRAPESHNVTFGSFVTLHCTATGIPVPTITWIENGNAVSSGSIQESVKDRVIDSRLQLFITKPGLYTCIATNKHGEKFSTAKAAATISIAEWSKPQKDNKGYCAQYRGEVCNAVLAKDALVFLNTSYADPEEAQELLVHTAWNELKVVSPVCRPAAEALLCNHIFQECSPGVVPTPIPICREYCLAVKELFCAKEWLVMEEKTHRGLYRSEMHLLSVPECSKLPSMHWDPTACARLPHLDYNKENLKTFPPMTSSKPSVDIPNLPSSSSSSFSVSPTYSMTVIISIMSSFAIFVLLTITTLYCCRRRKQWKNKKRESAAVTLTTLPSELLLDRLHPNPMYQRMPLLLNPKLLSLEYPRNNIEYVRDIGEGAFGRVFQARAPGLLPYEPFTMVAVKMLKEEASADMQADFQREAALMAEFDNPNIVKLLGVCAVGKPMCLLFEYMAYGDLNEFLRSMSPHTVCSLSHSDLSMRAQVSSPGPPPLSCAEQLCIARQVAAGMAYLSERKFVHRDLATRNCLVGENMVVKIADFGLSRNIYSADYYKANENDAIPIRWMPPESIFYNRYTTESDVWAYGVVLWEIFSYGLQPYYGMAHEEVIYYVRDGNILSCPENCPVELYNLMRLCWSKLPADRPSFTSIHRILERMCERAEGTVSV
Conditions: at 10 µM.

Assay [5] addresses Serine/threonine-protein kinase PLK3 (Homo sapiens, UniProt Q9H4B4). Kind of assay: Selectivity interaction (KinomeScan (DiscoverX)) EUB0000229b PLK3. The settings on record: at 10 µM.
Assay [6] has as its target T2, Serine/threonine-protein kinase DCLK3 (Homo sapiens) (UniProt Q9C098).
T2 sequence (whole entry): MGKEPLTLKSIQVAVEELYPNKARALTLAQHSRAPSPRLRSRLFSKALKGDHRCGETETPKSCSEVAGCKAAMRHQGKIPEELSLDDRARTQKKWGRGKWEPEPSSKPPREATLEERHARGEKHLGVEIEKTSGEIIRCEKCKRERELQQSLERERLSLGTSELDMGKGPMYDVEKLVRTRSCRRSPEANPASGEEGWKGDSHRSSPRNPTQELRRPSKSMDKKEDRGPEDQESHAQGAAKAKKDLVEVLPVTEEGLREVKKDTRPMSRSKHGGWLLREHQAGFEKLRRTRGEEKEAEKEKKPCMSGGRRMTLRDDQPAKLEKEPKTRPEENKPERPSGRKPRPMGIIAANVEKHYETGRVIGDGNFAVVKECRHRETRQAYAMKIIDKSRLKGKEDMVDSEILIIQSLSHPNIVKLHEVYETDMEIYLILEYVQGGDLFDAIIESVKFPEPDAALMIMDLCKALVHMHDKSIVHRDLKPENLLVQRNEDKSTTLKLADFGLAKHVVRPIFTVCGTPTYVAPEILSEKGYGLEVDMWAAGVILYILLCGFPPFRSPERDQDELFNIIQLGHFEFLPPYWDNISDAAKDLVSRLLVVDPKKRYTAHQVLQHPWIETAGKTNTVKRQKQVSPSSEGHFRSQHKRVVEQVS
The assay can be described thus: Selectivity interaction (KinomeScan (DiscoverX)) EUB0000229b DCLK3. Conditions: at 10 µM.

Assay [7] concerns the target Proto-oncogene tyrosine-protein kinase receptor Ret (Homo sapiens, UniProt P07949). The assay can be described thus: Selectivity interaction (Kinase panel (Invitrogen)) EUB0000639a RET. The settings on record: at 200 nM.
Assay [8] deals with T3, Mitogen-activated protein kinase kinase kinase 2 (Homo sapiens) (UniProt Q9Y2U5).
T3 sequence (whole entry): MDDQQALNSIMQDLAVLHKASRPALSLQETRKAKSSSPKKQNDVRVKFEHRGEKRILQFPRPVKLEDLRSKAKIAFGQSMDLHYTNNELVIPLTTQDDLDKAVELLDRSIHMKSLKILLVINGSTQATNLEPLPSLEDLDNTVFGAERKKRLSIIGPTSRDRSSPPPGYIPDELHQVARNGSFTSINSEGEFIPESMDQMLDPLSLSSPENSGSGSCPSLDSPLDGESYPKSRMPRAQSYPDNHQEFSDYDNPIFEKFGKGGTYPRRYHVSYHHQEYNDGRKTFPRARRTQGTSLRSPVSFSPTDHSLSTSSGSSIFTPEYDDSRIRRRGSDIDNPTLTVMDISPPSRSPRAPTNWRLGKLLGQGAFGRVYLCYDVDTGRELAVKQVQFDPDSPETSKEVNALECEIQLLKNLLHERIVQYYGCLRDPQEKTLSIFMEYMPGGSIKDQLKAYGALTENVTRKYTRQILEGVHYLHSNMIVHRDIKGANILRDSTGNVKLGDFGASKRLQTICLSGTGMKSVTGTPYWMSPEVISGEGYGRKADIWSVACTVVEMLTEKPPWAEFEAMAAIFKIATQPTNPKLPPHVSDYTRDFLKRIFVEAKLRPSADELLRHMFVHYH
Kind of assay: Selectivity interaction (KinomeScan (DiscoverX)) EUB0000595a MAP3K2. The settings on record: at 10 µM.

Molecules are shown by their SMILES.

Sequence of Casein kinase I isoform gamma-2 (Homo sapiens) (P78368 whole entry, looked up, canonical isoform): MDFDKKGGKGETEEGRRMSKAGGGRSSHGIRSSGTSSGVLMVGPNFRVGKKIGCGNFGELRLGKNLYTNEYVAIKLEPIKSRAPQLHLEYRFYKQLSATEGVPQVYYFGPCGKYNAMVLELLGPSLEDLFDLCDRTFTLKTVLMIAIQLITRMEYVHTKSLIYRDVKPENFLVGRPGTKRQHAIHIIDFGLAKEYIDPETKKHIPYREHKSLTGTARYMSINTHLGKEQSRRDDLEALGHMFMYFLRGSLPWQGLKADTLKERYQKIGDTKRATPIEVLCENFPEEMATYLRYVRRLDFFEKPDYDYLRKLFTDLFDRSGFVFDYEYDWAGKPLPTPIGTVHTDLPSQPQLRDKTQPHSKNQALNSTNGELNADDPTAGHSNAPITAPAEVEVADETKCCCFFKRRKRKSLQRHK
Sequence of Proto-oncogene tyrosine-protein kinase receptor Ret (P07949 whole entry): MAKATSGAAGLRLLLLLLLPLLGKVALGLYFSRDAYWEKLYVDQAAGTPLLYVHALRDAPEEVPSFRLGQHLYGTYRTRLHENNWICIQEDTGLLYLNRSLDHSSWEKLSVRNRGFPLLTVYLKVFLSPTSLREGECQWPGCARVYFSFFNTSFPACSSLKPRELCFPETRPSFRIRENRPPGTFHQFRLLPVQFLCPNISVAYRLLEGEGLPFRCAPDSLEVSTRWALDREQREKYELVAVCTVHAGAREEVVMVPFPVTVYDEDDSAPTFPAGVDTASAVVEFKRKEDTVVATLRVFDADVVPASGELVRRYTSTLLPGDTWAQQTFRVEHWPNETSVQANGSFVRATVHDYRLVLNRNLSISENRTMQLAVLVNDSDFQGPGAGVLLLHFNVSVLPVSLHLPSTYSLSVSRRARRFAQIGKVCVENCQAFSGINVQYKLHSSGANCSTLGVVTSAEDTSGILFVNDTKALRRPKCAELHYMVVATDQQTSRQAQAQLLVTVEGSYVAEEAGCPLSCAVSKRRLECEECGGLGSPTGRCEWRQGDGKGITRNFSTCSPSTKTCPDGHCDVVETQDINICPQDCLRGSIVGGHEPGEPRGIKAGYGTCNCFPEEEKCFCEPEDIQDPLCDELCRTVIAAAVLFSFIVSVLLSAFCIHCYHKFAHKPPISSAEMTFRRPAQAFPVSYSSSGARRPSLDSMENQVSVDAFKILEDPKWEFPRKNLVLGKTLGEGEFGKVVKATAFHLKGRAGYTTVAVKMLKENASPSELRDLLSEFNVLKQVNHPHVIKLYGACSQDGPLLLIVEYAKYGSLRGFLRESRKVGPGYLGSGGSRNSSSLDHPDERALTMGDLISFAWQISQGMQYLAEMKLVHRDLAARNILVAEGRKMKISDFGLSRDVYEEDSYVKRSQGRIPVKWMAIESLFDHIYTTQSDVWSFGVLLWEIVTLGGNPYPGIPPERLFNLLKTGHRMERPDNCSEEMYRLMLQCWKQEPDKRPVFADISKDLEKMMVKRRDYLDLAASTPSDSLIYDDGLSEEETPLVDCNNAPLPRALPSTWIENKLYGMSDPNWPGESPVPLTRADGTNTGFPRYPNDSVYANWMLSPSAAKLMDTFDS
Sequence of Serine/threonine-protein kinase PLK3 (Q9H4B4 whole entry, looked up): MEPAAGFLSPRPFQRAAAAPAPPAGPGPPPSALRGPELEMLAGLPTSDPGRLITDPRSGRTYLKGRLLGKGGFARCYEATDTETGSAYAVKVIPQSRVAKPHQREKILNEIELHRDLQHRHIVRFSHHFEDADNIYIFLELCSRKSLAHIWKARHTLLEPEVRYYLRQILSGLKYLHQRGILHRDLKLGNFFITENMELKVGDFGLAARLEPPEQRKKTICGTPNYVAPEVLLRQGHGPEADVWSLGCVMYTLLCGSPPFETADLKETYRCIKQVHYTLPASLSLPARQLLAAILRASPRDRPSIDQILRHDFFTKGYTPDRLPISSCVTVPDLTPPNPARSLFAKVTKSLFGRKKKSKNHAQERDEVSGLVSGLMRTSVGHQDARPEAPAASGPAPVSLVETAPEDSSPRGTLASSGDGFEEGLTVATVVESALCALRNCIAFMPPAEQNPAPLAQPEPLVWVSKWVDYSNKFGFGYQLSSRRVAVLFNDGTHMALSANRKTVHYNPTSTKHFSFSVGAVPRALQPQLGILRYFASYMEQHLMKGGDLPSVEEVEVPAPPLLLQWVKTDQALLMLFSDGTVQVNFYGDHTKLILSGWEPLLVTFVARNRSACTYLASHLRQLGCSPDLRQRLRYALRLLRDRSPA
Sequence of Serine/threonine-protein kinase 32B (Homo sapiens) (Q9NY57 whole entry): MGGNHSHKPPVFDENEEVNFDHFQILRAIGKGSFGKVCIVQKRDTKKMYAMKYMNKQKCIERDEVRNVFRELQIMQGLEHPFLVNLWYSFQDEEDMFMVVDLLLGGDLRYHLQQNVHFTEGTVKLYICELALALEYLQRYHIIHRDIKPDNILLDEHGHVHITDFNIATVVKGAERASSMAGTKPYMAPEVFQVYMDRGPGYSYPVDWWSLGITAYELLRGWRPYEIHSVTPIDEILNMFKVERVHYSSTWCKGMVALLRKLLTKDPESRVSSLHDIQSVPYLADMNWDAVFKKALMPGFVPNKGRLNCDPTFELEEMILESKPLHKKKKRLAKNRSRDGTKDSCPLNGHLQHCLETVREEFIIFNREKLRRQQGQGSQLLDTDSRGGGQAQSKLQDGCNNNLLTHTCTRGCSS
Sequence of MAP kinase-interacting serine/threonine-protein kinase 2 (Q9HBH9 whole entry, looked up, canonical isoform): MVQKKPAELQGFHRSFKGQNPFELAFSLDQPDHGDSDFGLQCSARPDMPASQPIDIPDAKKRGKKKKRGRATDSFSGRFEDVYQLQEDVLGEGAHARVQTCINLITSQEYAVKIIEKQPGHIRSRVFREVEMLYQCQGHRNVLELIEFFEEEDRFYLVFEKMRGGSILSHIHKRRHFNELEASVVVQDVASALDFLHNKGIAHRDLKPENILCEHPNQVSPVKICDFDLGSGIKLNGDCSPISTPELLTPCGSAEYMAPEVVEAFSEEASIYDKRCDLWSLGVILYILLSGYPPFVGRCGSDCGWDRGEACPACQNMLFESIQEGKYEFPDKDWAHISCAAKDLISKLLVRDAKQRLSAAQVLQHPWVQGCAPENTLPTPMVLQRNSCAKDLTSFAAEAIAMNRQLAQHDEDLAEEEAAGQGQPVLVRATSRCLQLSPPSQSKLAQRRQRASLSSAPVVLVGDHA

Compound `CN(C)C/C=C/C(=O)Nc1ccc(C(=O)N2CCCC(Nc3ncc(Cl)c(-c4c[nH]c5ccccc45)n3)C2)cc1` (stereo not drawn) showed a % of control in assay [1] of 90%.
`CNC(=O)Nc1ccc(-c2nc(N3CC4CCC(C3)O4)c3cnn(C4CCC5(CC4)OCCO5)c3n2)cc1` had a % of control in assay [2] of 87%.
For `Cc1cc([C@@H](C)Nc2ccccc2C(=O)O)c2nc(N3CCOCC3)cc(=O)n2c1` [AZD-6482], the % of control in assay [3] worked out at 88%; in assay [4], 100%.
As to `COc1cc(N(C)c2ccnc3ccc(C(F)(F)F)cc23)cc(OC)c1OC`, the results for the % binding in assay [5] and in assay [6] were 74% and 97%, respectively.
In assay [7], `CC[C@@H]1[C@H](F)C(=O)N[C@@H]1COc1nccc2cc(C(N)=O)c(OC)cc12` [ZIMLOVISERTIB] yielded a % of inhibition of 66%.
`COCC(=O)NC/C=C/c1ccc2ncnc(Nc3ccc(Oc4ccc(C)nc4)c(C)c3)c2c1` [CP-724714] registered a % of control in assay [8] of 100%.

Values taken from ChEMBL document CHEMBL5465560, “Selectivity Literature for EUbOPEN Chemogenomic Library” (2024).
